Measured values reported in article PMC8317958, “Design, synthesis and biological evaluation of novel thiazole-naphthalene derivatives as potential anticancer agents and tubulin polymerisation inhibitors” (Journal of Enzyme Inhibition and Medicinal Chemistry, 2021).
Blank lines part the entries; values can stand above or below the molecule they belong to.

Columns and labels:
[1] = tested on: human breast cancer cell line (MCF-7); assay: Antiproliferative activity, CCK-8 assay, MCF-7; assay type: cell-based; settings: CCK-8, 48 h, means of three experiments
Procedure: Cell culture and cytotoxicity assay […]
against MCF-7 human breast cancer cell line by using the CCK -8 assay with cisplatin, […]
cultured in RPMI-1640 medium containing 10% fetal bovine serum in a humidified 5% CO2 atmosphere at 37 °C. Cells were seeded into 96-well plates at a density of 1×10^5 cells/well and incubated for 24 h. After incubation, the cells were treated with vehicle control, reference drugs, or title compounds, and incubated at 37 °C for 48 h.
Then CCK-8 was added and incubated for another 4 h. The absorbance values of the solution at 450 nm were measured using microplate reader, and each experiment was performed at least in triplicate. Then the results were expressed as the IC50 values. […]

[2] = tested on: human lung adenocarcinoma cell line (A549); assay: Antiproliferative activity, CCK-8 assay, A549; assay type: cell-based; settings: CCK-8, means of three experiments
[3] = tested on: normal human embryonic kidney cell line (HEK293); assay: Inhibitory activity against normal cell line HEK293; assay type: cell-based
purified tubulin protein = assay: In vitro tubulin polymerisation assay; assay type: biochemical; settings: 37 °C, 20 min incubation
Procedure: 1.3. In vitro tubulin polymerization assay
The purified tubulin protein was mixed with different concentrations of compound 5b […]
PEM buffer (100 mM PIPES, 1 mM MgCl2, and 1 mM EGTA) with 1 mM GTP and 5% glycerol. Then the mixture was immediately monitored under 340 nm at 37 °C every 1 min for 20 min using the spectrophotometer. The plateau absorbance values were used for calculations. The IC50 value was defined as the concentration of the compound

MCF-7 cancer cells [4] = assay: Cell cycle analysis by flow cytometry; assay type: cell-based, human; settings: 24 h; for G2 (G2/M) population: control 26.66%; for S population: control 33.42%; for G1 population: control 39.92%
Procedure: Based on the literature report, most tubulin destabilising agents can disrupt regulated cell cycle distribution and lead to cell cycle arrest at metaphase[23]^,[31]. Therefore, we evaluated the effect of the most promising compound 5b on the cell cycle of MCF-7 cancer cells using the flow cytometry analysis assay. In this study, MCF-7 cancer cells were incubated with different concentrations of 5b (0.3125, 0.625, and 1.25 μM) for 24 h. […]
MCF-7 cells were seeded in 6-well plates (3 × 10^5 cells/well) and incubated in the absence and presence of different concentrations of compound 5b (0.3125, 0.625, and 1.25 μM) for 24 h. Subsequently, the cells were harvested, washed with PBS, and fixed in 70% ice-cold ethanol at 4 °C overnight. After removed the ethanol in the next day, the cells were resuspended in the staining buffer and incubated with RNase and propidium iodide for 30 min. […]

MCF-7 cancer cells [5] = assay: Annexin V-FITC/PI apoptosis assay; assay type: cell-based, human; settings: 24 h; for total numbers of early and late apoptotic cells: control 4.93%
Procedure: Considering that tubulin polymerisation inhibitors can induce cellular apoptosis, the Annexin V-FITC/PI assay was performed to detect whether compound 5b was able to induce cancer cell apoptosis. […]
MCF-7 cells were seeded in 6-well plates (3 × 10^5 cells/well) and incubated with different concentrations of compound 5b (0.3125, 0.625, and 1.25 μM) or vehicle for 24 h. Cells were harvested and incubated with 5 μL of Annexin-V/FITC in 300 μL binding buffer for 15 min. Then, PI solution (10 μL) was added to the medium and […]
incubated for 5 min. […]

tubulin = tested on: tubulin; design: method as in PMID 31724435; settings: naphthalene-chalcone derivative of earlier work ref 23; read-out: Tubulin polymerisation IC50; cited from earlier work

SMILES: COc1ccc(-c2sc(NC(C)=O)nc2-c2ccc(OC)c3ccccc23)cc1 [6a]
IC50 ([1]; Homo sapiens, MCF7): 2.16 ± 0.27 µM
IC50 ([2]; Homo sapiens, A549): 16.1 ± 0.83 µM

SMILES: CCOc1ccc(-c2sc(NC(C)=O)nc2-c2ccc(OC)c3ccccc23)cc1 [6f]
IC50 ([1]; Homo sapiens, MCF7): 5.49 ± 0.84 µM
IC50 ([2]; Homo sapiens, A549): 7 ± 0.3 µM

SMILES: CCOc1ccc(-c2sc(NC(=O)C(C)C)nc2-c2ccc(OC)c3ccccc23)cc1 [6i]
IC50 ([1]; Homo sapiens, MCF7): 7.69 ± 0.34 µM
IC50 ([2]; Homo sapiens, A549): > 50 µM

SMILES: CCC(=O)Nc1nc(-c2ccc(OC)c3ccccc23)c(-c2cc(OC)c(OC)c(OC)c2Br)s1 [6j]
IC50 ([1]; Homo sapiens, MCF7): > 50 µM
IC50 ([2]; Homo sapiens, A549): > 50 µM

SMILES: COc1cc(-c2sc(NC(=O)C(C)C)nc2-c2ccc(OC)c3ccccc23)c(Br)c(OC)c1OC [6k]
IC50 ([1]; Homo sapiens, MCF7): > 50 µM
IC50 ([2]; Homo sapiens, A549): > 50 µM

SMILES: CCCC(=O)N(C(=O)CCC)c1nc(-c2ccc(OC)c3ccccc23)c(-c2cc(OC)c(OC)c(OC)c2Br)s1 [6m]
IC50 ([1]; Homo sapiens, MCF7): > 50 µM
IC50 ([2]; Homo sapiens, A549): > 50 µM

SMILES: COc1ccc(/C=C\c2cc(OC)c(OC)c(OC)c2)cc1O [CA-4, combretastatin A-4, reference compound]
IC50 ([2]; Homo sapiens, A549): 0.029 ± 0.004 µM

SMILES: N.N.[Cl][Pt][Cl] [Cisplatin, reference compound]
IC50 [1]: 11.2 ± 0.75 µM
IC50 [2]: 4.92 ± 0.56 µM

SMILES: COc1cc2nc(/C=N/c3cccnc3Nc3ccc(Cl)cc3)sc2c(OC)c1OC [IV]
IC50 (tubulin): 8.4 µM

Continued by falling IC50 ([1]; Homo sapiens, MCF7), values first:

IC50 ([1]; Homo sapiens, MCF7): 31.1 ± 0.7 µM
IC50 ([2]; Homo sapiens, A549): > 50 µM
SMILES: COc1cc(-c2sc(N)nc2-c2ccc(OC)c3ccccc23)c(Br)c(OC)c1OC [5c]

IC50 ([1]; Homo sapiens, MCF7): 14.9 ± 0.34 µM
IC50 ([2]; Homo sapiens, A549): > 50 µM
SMILES: CCCC(=O)Nc1nc(-c2ccc(OC)c3ccccc23)c(-c2ccc(OC)cc2)s1 [6c]

IC50 ([1]; Homo sapiens, MCF7): 14.8 ± 0.45 µM
IC50 ([2]; Homo sapiens, A549): 40.32 ± 0.32 µM
SMILES: CCC(=O)Nc1nc(-c2ccc(OC)c3ccccc23)c(-c2ccc(OC)cc2)s1 [6b]

IC50 ([1]; Homo sapiens, MCF7): 13.5 ± 0.82 µM
IC50 ([2]; Homo sapiens, A549): 16.3 ± 0.89 µM
SMILES: CCC(=O)N(C(C)=O)c1nc(-c2ccc(OC)c3ccccc23)c(-c2cc(OC)c(OC)c(OC)c2Br)s1 [6n, N-acetyl-N-(5-(2-bromo-3,4,5-trimethoxyphenyl)-4-(4-methoxynaphthalen-1-yl)thiazol-2-yl)propionamide]

IC50 ([1]; Homo sapiens, MCF7): 12.3 ± 0.54 µM
IC50 ([2]; Homo sapiens, A549): > 50 µM
SMILES: COc1ccc(-c2sc(NC(=O)C(C)C)nc2-c2ccc(OC)c3ccccc23)cc1 [6e]

IC50 ([1]; Homo sapiens, MCF7): 9.61 ± 0.54 µM
IC50 ([2]; Homo sapiens, A549): 18.7 ± 0.89 µM
SMILES: CCOc1ccc(-c2sc(NC(=O)CC)nc2-c2ccc(OC)c3ccccc23)cc1 [6g]

IC50 ([1]; Homo sapiens, MCF7): 7.18 ± 0.78 µM
IC50 ([2]; Homo sapiens, A549): > 50 µM
SMILES: CCCC(=O)Nc1nc(-c2ccc(OC)c3ccccc23)c(-c2ccc(OCC)cc2)s1 [6h]

IC50 ([1]; Homo sapiens, MCF7): 1.8 ± 0.07 µM
IC50 ([2]; Homo sapiens, A549): 2.72 ± 0.18 µM
SMILES: COc1ccc(-c2sc(N)nc2-c2ccc(OC)c3ccccc23)cc1 [5a]

IC50 ([1]; Homo sapiens, MCF7): 1.03 ± 0.09 µM
IC50 ([2]; Homo sapiens, A549): 1.91 ± 0.08 µM
IC50 (purified tubulin protein): 6.6 µM
SMILES: COc1ccc(-c2sc(NC(=O)C(Cl)(Cl)Cl)nc2-c2ccc(OC)c3ccccc23)cc1 [6d]

IC50 ([1]; Homo sapiens, MCF7): 0.48 ± 0.03 µM
IC50 ([2]; Homo sapiens, A549): 0.97 ± 0.13 µM
IC50 (purified tubulin protein): 3.3 µM
SMILES: CCOc1ccc(-c2sc(N)nc2-c2ccc(OC)c3ccccc23)cc1 [5b]
IC50 [3]: 16.4 ± 4.61 µM
G2 (G2/M) population (MCF-7 cancer cells [4]; 5b 0.3125 μM): 29.03%
S population (MCF-7 cancer cells [4]; 5b 0.3125 μM): 28.11%
G1 population (MCF-7 cancer cells [4]; 5b 0.3125 μM): 42.86%
G2 (G2/M) population (MCF-7 cancer cells [4]; 5b 0.625 μM): 47.32%
S population (MCF-7 cancer cells [4]; 5b 0.625 μM): 36.61%
G1 population (MCF-7 cancer cells [4]; 5b 0.625 μM): 16.06%
G2 (G2/M) population (MCF-7 cancer cells [4]; 5b 1.25 μM): 72.49%
S population (MCF-7 cancer cells [4]; 5b 1.25 μM): 20.22%
G1 population (MCF-7 cancer cells [4]; 5b 1.25 μM): 7.29%
Q1 quadrant (MCF-7 cancer cells [5]; 5b 0.3125 μM): 0.25
Q2 quadrant (MCF-7 cancer cells [5]; 5b 0.3125 μM): 10.2
Q3 quadrant (MCF-7 cancer cells [5]; 5b 0.3125 μM): 5.58
Q4 quadrant (MCF-7 cancer cells [5]; 5b 0.3125 μM): 83.9
total numbers of early and late apoptotic cells (MCF-7 cancer cells [5]; 5b 0.3125 μM): 15.78%
Q1 quadrant (MCF-7 cancer cells [5]; 5b 0.625 μM): 0.44
Q2 quadrant (MCF-7 cancer cells [5]; 5b 0.625 μM): 14.8
Q3 quadrant (MCF-7 cancer cells [5]; 5b 0.625 μM): 10.8
Q4 quadrant (MCF-7 cancer cells [5]; 5b 0.625 μM): 74.0
total numbers of early and late apoptotic cells (MCF-7 cancer cells [5]; 5b 0.625 μM): 25.6%
Q1 quadrant (MCF-7 cancer cells [5]; 5b 1.25 μM): 0.55
Q2 quadrant (MCF-7 cancer cells [5]; 5b 1.25 μM): 15.1
Q3 quadrant (MCF-7 cancer cells [5]; 5b 1.25 μM): 12.6
Q4 quadrant (MCF-7 cancer cells [5]; 5b 1.25 μM): 71.8
total numbers of early and late apoptotic cells (MCF-7 cancer cells [5]; 5b 1.25 μM): 27.7%
